Reference: US20040180880A1, “Piperazine and piperidine derivatives” (priority 2002, published 2004)
Counter-ions that a name gives are not always drawn.

How the values were obtained:
[1] = system: rat embryo ventral mesencephalic (VM) cells; assay: Neuroprotection assay: NMDA injury of ventral mesencephalic cultures, read by high affinity 3H-dopamine uptake; type: cell-based; conditions: embryonic day 15 Sprague-Dawley rat VM cells, NMDA 100-400 μM for 20 hours, read-out: DAT (VM) IC50
Source text: The neuroprotective activity of the compounds of this invention may be assayed using rat embryo ventral mesencephalic cells in culture which are subsequently exposed to the glutamate receptor agonist NMDA. This assay is described in detail in the example section.
The ventral mesencephalic region was dissected out of embryonic day 15 Sprague-Dawley rat embryos (Harlan), dissociated into single cell suspension by a combination of trypsinization and trituration (Costantini et al., Neurobiol Dis., pp. 97-106 (1998). Dissociated VM cells were plated into poly-L-ornithine-coated 96-well plates at a density of 85,000 cells/well in 100 uL of DMEM supplemented with 18% heat-inactivated horse serum, 0.24% glucose, 2 mM glutamine and 50 u/ml pernicillin/streptomycin and incubated in a 5% CO2 incubator. After one day in culture (DIV1), the medium was replaced with 100 μL of a defined medium (DMEM supplemented with 1×N2 cocktail (Gibco-BRL), 0.12% glucose, 2 mM glutamine, and […] penicillin/streptomycin) containing DMSO or various concentrations of the compounds of this invention. On DIV5, neuroexcitotoxic injury was induced by the addition of various concentrations of the glutamate receptor agonist NMDA (100-400 μM). Cultures were incubated with the neurotoxin for 20 hours and the effects of neurophilin compounds were assessed using high affinity ^3H-dopamine uptake according to a procedure published by Park and Mytilineou [Brain Res., 599, pp. 83-97 (1992)].

Row | melting point | SMILES | IC50 [1]
1 | 84 to 85 °C | O=C(C1CCCCN1)N1CCN(C(c2ccc(F)cc2F)c2ccc(F)cc2F)CC1 (stereo not shown) (as salt: hydrochloride) [Compound 9, {4-[Bis-(2,4-difluoro-phenyl)-methyl]-piperazin-1-yl}-piperidin-2-yl-methanone] | –
2 | – | O=C(C1CCCCN1)N1CCN(C(c2ccc(F)cc2F)c2ccc(F)cc2F)CC1 (stereo not shown) [Compound 9, {4-[Bis-(2,4-difluoro-phenyl)-methyl]-piperazin-1-yl}-piperidin-2-yl-methanone] | 145 nM
3 | – | O=C(C1CCCCN1)N1CCN(C(c2ccc(F)c(F)c2)c2ccc(F)c(F)c2)CC1 (stereo not shown) [Compound 17, (4-(Bis-(3,4-difluoro-phenyl)-methyl)piperazine-1-yl)-piperidin-2-yl-methanone] | 6 nM
4 | – | O=C(C1CCCCN1)N1CCN(C(c2ccc(F)cc2)c2ccc(F)cc2)CC1 (stereo not shown) [Compound 28, (4-(Bis-(4-fluoro-phenyl)-methyl)piperazine-1-yl)-piperidin-2-yl-methanone dihydrochloride] | 12 nM
